Results as given in BindingDB's records for doi:10.1021/jm801063n (University of Auckland, 2009).

Assay: Inhibition of recombinant perforin-mediated lysis of human Jurkat T cells by 51Cr release assay

Row | IC50 [µM] | SMILES
1 | > 20 | Cc1cc2c(c(=S)[nH]1)C(=O)O/C2=C\c1ccc(N(C)C)cc1 [(Z)-1-(4-(Dimethylamino)benzylidene)-6-methyl-4-thioxo-4,5-dihydrofuro[3,4-c]pyridin-3(1H)-one]
2 | > 20 | Cc1cc2c(c(=S)[nH]1)C(=O)O/C2=C\c1ccc(Cl)cc1 [(Z)-1-(4-Chlorobenzylidene)-6-methyl-4-thioxo-4,5-dihydrofuro[3,4-c]pyridin-3(1H)-one]
3 | > 20 | Cc1cc2c(c(=S)[nH]1)C(=O)O/C2=C\c1ccc(F)cc1 [(Z)-1-(4-Fluorobenzylidene)-6-methyl-4-thioxo-4,5-dihydrofuro[3,4-c]pyridin-3(1H)-one]
4 | > 20 | Cc1cc2c(c(=S)[nH]1)C(=O)O/C2=C\c1ncc[nH]1 [(Z)-1-((1H-Imidazol-2-yl)methylene)-6-methyl-4-thioxo-4,5-dihydrofuro[3,4-c]pyridin-3(1H)-one]
5 | 1.3 | Cc1cc2c(c(=S)[nH]1)C(=O)O/C2=C\c1cc2ccccc2[nH]1 [(Z)-1-((1H-Indol-2-yl)methylene)-6-methyl-4-thioxo-4,5-dihydrofuro[3,4-c]pyridin-3(1H)-one]
6 | > 20 | Cc1cc2c(c(=S)[nH]1)C(=O)O/C2=C\c1c[nH]c2ccccc12 [(Z)-1-((1H-Indol-3-yl)methylene)-6-methyl-4-thioxo-4,5-dihydrofuro[3,4-c]pyridin-3(1H)-one]
7 | 4.1 | Cc1cc2c(c(=S)[nH]1)C(=O)O/C2=C\c1cccc2cc[nH]c12 [(Z)-1-((1H-Indol-7-yl)methylene)-6-methyl-4-thioxo-4,5-dihydrofuro[3,4-c]pyridin-3(1H)-one]
8 | > 20 | Cc1cc2c(c(=S)[nH]1)C(=O)O/C2=C\c1ccc[nH]1 [(Z)-1-((1H-Pyrrol-2-yl)methylene)-6-methyl-4-thioxo-4,5-dihydrofuro[3,4-c]pyridin-3(1H)-one]
9 | > 20 | Cc1cc2c(c(=O)[nH]1)C(=O)O/C2=C\c1ccc[nH]1 [(Z)-1-((1H-Pyrrol-2-yl)methylene)-6-methylfuro[3,4-c]pyridine-3,4(1H,5H)-dione]
10 | 6.7 | COc1cccc2oc(/C=C3\OC(=O)c4c3cc(C)[nH]c4=S)cc12 [(Z)-1-((4-Methoxybenzofuran-2-yl)methylene)-6-methyl-4-thioxo-4,5-dihydrofuro[3,4-c]pyridin-3(1H)-one]
11 | > 20 | Cc1cc2c(c(=S)[nH]1)C(=O)O/C2=C\c1cc2cc(OCc3ccccc3)ccc2[nH]1 [(Z)-1-((5-(Benzyloxy)-1H-indol-2-yl)methylene)-6-methyl-4-thioxo-4,5-dihydrofuro[3,4-c]pyridin-3(1H)-one]
12 | 7.5 | Cc1cc2c(c(=S)[nH]1)C(=O)O/C2=C\c1csc2ccc(Br)cc12 [(Z)-1-((5-Bromobenzo[b]thiophen-3-yl)methylene)-6-methyl-4-thioxo-4,5-dihydrofuro[3,4-c]pyridin-3(1H)-one]
13 | 4.6 | COc1ccc2[nH]c(/C=C3\OC(=O)c4c3cc(C)[nH]c4=S)cc2c1 [(Z)-1-((5-Methoxy-1H-indol-2-yl)methylene)-6-methyl-4-thioxo-4,5-dihydrofuro[3,4-c]pyridin-3(1H)-one]
14 | 13.1 | COc1ccc2sc(/C=C3\OC(=O)c4c3cc(C)[nH]c4=S)cc2c1 [(Z)-1-((5-Methoxybenzo[b]thiophen-2-yl)methylene)-6-methyl-4-thioxo-4,5-dihydrofuro[3,4-c]pyridin-3(1H)-one]
15 | 5.1 | COc1ccc2scc(/C=C3\OC(=O)c4c3cc(C)[nH]c4=S)c2c1 [(Z)-1-((5-Methoxybenzo[b]thiophen-3-yl)methylene)-6-methyl-4-thioxo-4,5-dihydrofuro[3,4-c]pyridin-3(1H)-one]
16 | 2.4 | COc1ccc2oc(/C=C3\OC(=O)c4c3cc(C)[nH]c4=S)cc2c1 [(Z)-1-((5-Methoxybenzofuran-2-yl)methylene)-6-methyl-4-thioxo-4,5-dihydrofuro[3,4-c]pyridin-3(1H)-one]
17 | > 20 | COc1cc2cc(/C=C3\OC(=O)c4c3cc(C)[nH]c4=S)[nH]c2cc1OCc1ccccc1 [(Z)-1-((6-(Benzyloxy)-5-methoxy-1H-indol-2-yl)methylene)-6-methyl-4-thioxo-4,5-dihydrofuro[3,4-c]pyridin-3(1H)-one]
18 | 5.1 | COc1cc2cc(/C=C3\OC(=O)c4c3cc(C)[nH]c4=S)oc2cc1OCc1ccccc1 [(Z)-1-((6-(Benzyloxy)-5-methoxybenzofuran-2-yl)methylene)-6-methyl-4-thioxo-4,5-dihydrofuro[3,4-c]pyridin-3(1H)-one]
19 | 3.1 | COc1ccc2cc(/C=C3\OC(=O)c4c3cc(C)[nH]c4=S)[nH]c2c1 [(Z)-1-((6-Methoxy-1H-indol-2-yl)methylene)-6-methyl-4-thioxo-4,5-dihydrofuro[3,4-c]pyridin-3(1H)-one]
20 | 5.4 | COc1ccc2cc(/C=C3\OC(=O)c4c3cc(C)[nH]c4=S)sc2c1 [(Z)-1-((6-Methoxybenzo[b]thiophen-2-yl)methylene)-6-methyl-4-thioxo-4,5-dihydrofuro[3,4-c]pyridin-3(1H)-one]
21 | 4.7 | COc1ccc2c(/C=C3\OC(=O)c4c3cc(C)[nH]c4=S)csc2c1 [(Z)-1-((6-Methoxybenzo[b]thiophen-3-yl)methylene)-6-methyl-4-thioxo-4,5-dihydrofuro[3,4-c]pyridin-3(1H)-one]
22 | 7.2 | COc1ccc2cc(/C=C3\OC(=O)c4c3cc(C)[nH]c4=S)oc2c1 [(Z)-1-((6-Methoxybenzofuran-2-yl)methylene)-6-methyl-4-thioxo-4,5-dihydrofuro[3,4-c]pyridin-3(1H)-one]

Row | IC50 [µM] | SMILES
23 | 3 | COc1cccc2cc(/C=C3\OC(=O)c4c3cc(C)[nH]c4=S)oc12 [(Z)-1-((7-Methoxybenzofuran-2-yl)methylene)-6-methyl-4-thioxo-4,5-dihydrofuro[3,4-c]pyridin-3(1H)-one]
24 | 9.5 | Cc1cc2c(c(=S)[nH]1)C(=O)O/C2=C\c1cc2ccccc2s1 [(Z)-1-(Benzo[b]thiophen-2-ylmethylene)-6-methyl-4-thioxo-4,5-dihydrofuro[3,4-c]pyridin-3(1H)-one]
25 | 4.6 | Cc1cc2c(c(=O)[nH]1)C(=O)O/C2=C\c1cc2ccccc2s1 [(Z)-1-(Benzo[b]thiophen-2-ylmethylene)-6-methylfuro[3,4-c]pyridine-3,4(1H,5H)-dione]
26 | 8.5 | Cc1cc2c(c(=O)[nH]1)C(=O)O/C2=C\c1csc2ccccc12 [(Z)-1-(Benzo[b]thiophen-3-ylmethylene)-6-methylfuro[3,4-c]pyridine-3,4(1H,5H)-dione]
27 | 8.2 | Cc1cc2c(c(=S)[nH]1)C(=O)O/C2=C\c1cc2ccccc2o1 [(Z)-1-(Benzofuran-2-ylmethylene)-6-methyl-4-thioxo-4,5-dihydrofuro[3,4-c]pyridin-3(1H)-one]
28 | > 20 | Cc1cc2c(c(=S)[nH]1)C(=O)O/C2=C\c1coc2ccccc12 [(Z)-1-(Benzofuran-3-ylmethylene)-6-methyl-4-thioxo-4,5-dihydrofuro[3,4-c]pyridin-3(1H)-one]
29 | > 20 | Cc1cc2c(c(=S)[nH]1)C(=O)O/C2=C\c1ccc(-c2ccccc2)cc1 [(Z)-1-(Biphenyl-4-ylmethylene)-6-methyl-4-thioxo-4,5-dihydrofuro[3,4-c]pyridin-3(1H)-one]
30 | 4.4 | Cc1cc2c(c(=S)[nH]1)C(=O)O/C2=C\c1ccco1 [(Z)-1-(Furan-2-ylmethylene)-6-methyl-4-thioxo-4,5-dihydrofuro[3,4-c]pyridin-3(1H)-one]
31 | > 20 | Cc1cc2c(c(=S)[nH]1)C(=O)O/C2=C\c1ccoc1 [(Z)-1-(Furan-3-ylmethylene)-6-methyl-4-thioxo-4,5-dihydrofuro[3,4-c]pyridin-3(1H)-one]
32 | > 20 | Cc1cc2c(c(=S)[nH]1)C(=O)O/C2=C\c1ccccc1 [(Z)-1-Benzylidene-6-methyl-4-thioxo-4,5-dihydrofuro[3,4-c]pyridin-3(1H)-one]
33 | 3.8 | COc1cccc2scc(/C=C3\OC(=O)c4c3cc(C)[nH]c4=S)c12 [(Z)-1-[(4-Methoxy-1-benzothien-3-yl)methylene]-6-methyl-4-thioxo-4,5-dihydrofuro[3,4-c]pyridine-3(1H)-one]
34 | > 20 | CSc1ccc(/C=C2\OC(=O)c3c2cc(C)[nH]c3=S)cc1 [(Z)-6-Methyl-1-(4-(methylthio)benzylidene)-4-thioxo-4,5-dihydrofuro[3,4-c]pyridin-3(1H)-one]
35 | > 20 | Cc1ccc(/C=C2\OC(=O)c3c2cc(C)[nH]c3=S)cc1 [(Z)-6-Methyl-1-(4-methylbenzylidene)-4-thioxo-4,5-dihydrofuro[3,4-c]pyridin-3(1H)-one]
36 | > 20 | Cc1cc2c(c(=S)[nH]1)C(=O)O/C2=C\c1cc2ccccc2n1C [(Z)-6-Methyl-1-((1-methyl-1H-indol-2-yl)methylene)-4-thioxo-4,5-dihydrofuro[3,4-c]pyridin-3(1H)-one]
37 | 4.3 | Cc1cc2c(c(=S)[nH]1)C(=O)O/C2=C\c1cn(C)c2ccccc12 [(Z)-6-Methyl-1-((1-methyl-1H-indol-3-yl)methylene)-4-thioxo-4,5-dihydrofuro[3,4-c]pyridin-3(1H)-one]
38 | > 20 | Cc1cc2c(c(=O)[nH]1)C(=O)O/C2=C\c1cn(C)c2ccccc12 [(Z)-6-Methyl-1-((1-methyl-1H-indol-3-yl)methylene)furo[3,4-c]pyridine-3,4(1H,5H)-dione]
39 | > 20 | Cc1cc2c(c(=S)[nH]1)C(=O)O/C2=C\c1cccn1C [(Z)-6-Methyl-1-((1-methyl-1H-pyrrol-2-yl)methylene)-4-thioxo-a4,5-dihydrofuro[3,4-c]pyridin-3(1H)-one]
40 | > 20 | Cc1cc2c(c(=O)[nH]1)C(=O)N/C2=C\c1ccc(C)o1 [(Z)-6-Methyl-1-((5-methylfuran-2-yl)methylene)-1H-pyrrolo[3,4-c]pyridine-3,4(2H,5H)-dione]
41 | > 20 | Cc1cc2c(c(=O)[nH]1)C(=O)O/C2=C\c1ccc(C)o1 [(Z)-6-Methyl-1-((5-methylfuran-2-yl)methylene)furo[3,4-c]pyridine-3,4(1H,5H)-dione]
42 | 7.2 | Cc1cc2c(c(=S)[nH]1)C(=O)O/C2=C\c1ccc(C)s1 [(Z)-6-Methyl-1-((5-methylthiophen-2-yl)methylene)-4-thioxo-4,5-dihydrofuro[3,4-c]pyridin-3(1H)-one]
43 | 4 | Cc1cc2c(c(=S)[nH]1)C(=O)O/C2=C\c1ccc(-c2ccccc2)o1 [(Z)-6-Methyl-1-((5-phenylfuran-2-yl)methylene)-4-thioxo-4,5-dihydrofuro[3,4-c]pyridin-3(1H)-one]
